From patent publication US6315907A (priority 1997, dated 2001)

Test system: TSST-1
Assay type: binding, Staphylococcus aureus

CCCCCCCCN [n-octylamine]
adsorption ability for TSST-1: enhanced to a great extent
